Test systems include 786-0; BT-549; CAKI-1; EKVX; IGROV-1; M14; MOLT-4; Malme-3M; NCI-H460; OVCAR-3; RPMI-8226; RXF 393; SF-295; SK-MEL-5; SK-OV-3; SNB-75; TK-10; UACC-257; SK-MEL-2.
Assay in all cases: inhibition of tumour cell growth, NCI panel, 48 h

Structures are written as SMILES.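 Test compounds were applied to cells in 96-well plates for 48 hours at 5 doses. The concentration for 50% growth inhibition is given as GI50.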 Active and inactive are the calls of the source. Cut-off read from the data, not from the text of the source: active = GI50 up to about 1.1 µM and inactive = higher.

`CC(C)(C)c1ccc2c(c1)C(=O)c1ccccc1C2=O`: the GI50 was > 100 µM (inactive) in the experiment with 786-0; 24.8 µM (inactive) in the experiment on BT-549; > 100 µM (inactive) in the experiment with CAKI-1; 19 µM (inactive) in the experiment on EKVX; 33 µM (inactive) in the experiment with IGROV-1; > 100 µM (inactive) with M14. Besides, the GI50 in the experiment on MOLT-4 is 24.6 µM (inactive); in the experiment with Malme-3M it was > 100 µM (inactive); with NCI-H460, 31.3 µM (inactive); with OVCAR-3, > 100 µM (inactive); in the experiment with RPMI-8226, 31.3 µM (inactive); with RXF 393, 26.1 µM (inactive). Further, the GI50 was 56.4 µM (inactive) in the experiment on SF-295; 18.1 µM (inactive) with SK-MEL-5; > 100 µM (inactive) in the experiment with SK-OV-3; 16.2 µM (inactive) with SNB-75; 86.3 µM (inactive) in the experiment on TK-10; 40.2 µM (inactive) in the experiment with UACC-257.

In the case of `Oc1c(Cl)ccc2cccnc12`, the GI50 in the experiment with 786-0 is 6.18 µM (inactive); in the experiment with BT-549 it was 15.5 µM (inactive); in the experiment on CAKI-1, 3.25 µM (inactive); with EKVX, 3.43 µM (inactive); in the experiment with IGROV-1, 0.223 µM (active); in the experiment with M14, 3 µM (inactive). The GI50 is 1.84 µM (inactive) in the experiment with MOLT-4; 8.89 µM (inactive) in the experiment with Malme-3M; 3.4 µM (inactive) with NCI-H460; 2.09 µM (inactive) in the experiment on OVCAR-3; 2.71 µM (inactive) in the experiment with RPMI-8226; 1.83 µM (inactive) in the experiment with RXF 393. In addition, the GI50 is 2.79 µM (inactive) in the experiment on SF-295; 3.42 µM (inactive) in the experiment on SK-MEL-5; 4.71 µM (inactive) in the experiment with SK-OV-3; 11.6 µM (inactive) in the experiment on SNB-75; 4.36 µM (inactive) in the experiment with TK-10; 6.03 µM (inactive) in the experiment with UACC-257.

Take `O=C(O)c1cc2ccccc2c(Cc2c(O)c(C(=O)O)cc3ccccc23)c1O` [PAMOIC ACID]: the GI50 with 786-0, in the experiment with BT-549, in the experiment with CAKI-1, in the experiment with EKVX, with IGROV-1 and in the experiment on M14 was > 100 µM (inactive) throughout. Besides, the GI50 in the experiment on MOLT-4, with Malme-3M, in the experiment with NCI-H460, with OVCAR-3, in the experiment with RPMI-8226 and with RXF 393 was > 100 µM (inactive) each time. Also, the GI50 in the experiment on SF-295, in the experiment on SK-MEL-2, in the experiment with SK-MEL-5, in the experiment on TK-10 and with UACC-257 was > 100 µM (inactive) throughout.

In the case of `CC(C)(C)c1ccc(O)c(C(O)c2ccccn2)c1` (stereo unspecified), the GI50 is 61.8 µM (inactive) with 786-0; > 100 µM (inactive) in the experiment with BT-549; > 100 µM (inactive) in the experiment on CAKI-1; 54.1 µM (inactive) in the experiment on EKVX; > 10 µM (inactive) with IGROV-1; 54.2 µM (inactive) in the experiment with MOLT-4. Also, the GI50 with Malme-3M is 37.6 µM (inactive); with NCI-H460, 48.5 µM (inactive); in the experiment on OVCAR-3, > 100 µM (inactive); in the experiment with RPMI-8226, 58.5 µM (inactive); in the experiment with RXF 393, 66.8 µM (inactive); in the experiment with SF-295, 57.5 µM (inactive). The GI50 in the experiment on SNB-75 and with TK-10 was > 100 µM (inactive) throughout.

For `CCOC(=O)c1ccc(C(=O)/C(C#N)=C2\CCCN2C)[nH]1`, the GI50 in the experiment on 786-0, in the experiment with BT-549, with CAKI-1, in the experiment on EKVX, in the experiment with IGROV-1 and in the experiment on M14 was > 100 µM (inactive) throughout. The GI50 with MOLT-4, with Malme-3M, in the experiment with NCI-H460, in the experiment on OVCAR-3, in the experiment with RPMI-8226 and with RXF 393 was > 100 µM (inactive) throughout. In addition, the GI50 with SF-295, in the experiment on SK-MEL-2, in the experiment on SK-MEL-5, in the experiment on SNB-75, in the experiment on TK-10 and with UACC-257 was > 100 µM (inactive) each time.

In the case of `CC1(CCOCc2ccccc2)NC(=O)NC1=O` (stereo unspecified), the GI50 with 786-0, in the experiment with BT-549, with CAKI-1, in the experiment with EKVX, with IGROV-1 and in the experiment with M14 was > 100 µM (inactive) each time. For the same molecule, the GI50 with MOLT-4, with Malme-3M, in the experiment with NCI-H460, with OVCAR-3, in the experiment with RXF 393 and in the experiment on SF-295 was > 100 µM (inactive) throughout. The GI50 with SK-MEL-2, in the experiment with SK-MEL-5, with TK-10 and in the experiment with UACC-257 was > 100 µM (inactive) throughout.

On to `CN(C)CCNC(=O)c1cc(-c2nccn2C)nc2ccccc12`, for which the GI50 in the experiment on 786-0 was > 100 µM (inactive); in the experiment on BT-549 it was 81.1 µM (inactive); in the experiment on CAKI-1, > 100 µM (inactive); in the experiment with EKVX, > 100 µM (inactive); in the experiment on IGROV-1, > 100 µM (inactive); in the experiment with M14, > 100 µM (inactive). Besides, the GI50 is > 100 µM (inactive) with MOLT-4; > 100 µM (inactive) with Malme-3M; 34.4 µM (inactive) in the experiment with NCI-H460; > 100 µM (inactive) in the experiment with RPMI-8226; 45.4 µM (inactive) with RXF 393; > 100 µM (inactive) in the experiment with SK-MEL-2. Further, the GI50 in the experiment with SK-MEL-5, in the experiment with SNB-75, in the experiment with TK-10 and in the experiment with UACC-257 was > 100 µM (inactive) each time.

As to `COc1cc(-c2c(C#N)c(N)c(C#N)c3c2COc2ccccc2-3)cc(OC)c1OC`, the GI50 in the experiment on 786-0 is 7.93 µM (inactive); in the experiment on BT-549, 31.6 µM (inactive); in the experiment on CAKI-1, 53.1 µM (inactive); in the experiment on EKVX, 25.6 µM (inactive); in the experiment on IGROV-1, 26.7 µM (inactive); in the experiment on M14, > 100 µM (inactive). In addition, the GI50 in the experiment on MOLT-4 is > 76.9 µM (inactive); with Malme-3M it was 20.3 µM (inactive); in the experiment with NCI-H460, > 77.3 µM (inactive); with OVCAR-3 it was > 42.8 µM (inactive); in the experiment with RPMI-8226 it was > 22.9 µM (inactive); in the experiment with RXF 393, 16.4 µM (inactive). Besides, the GI50 was 24.9 µM (inactive) in the experiment on SF-295; 22.6 µM (inactive) in the experiment on SK-MEL-2; > 86.3 µM (inactive) in the experiment on SK-MEL-5; 14.6 µM (inactive) in the experiment on SK-OV-3; 17.6 µM (inactive) with TK-10; > 100 µM (inactive) with UACC-257.

Take `S=C1CC(c2ccccc2)Sc2cc(Cl)ccc2N1` (stereo unspecified): the GI50 in the experiment on 786-0 is 5.42 µM (inactive); in the experiment with BT-549, 8.79 µM (inactive); in the experiment with CAKI-1, 7.71 µM (inactive); with EKVX it was 20.7 µM (inactive); in the experiment on IGROV-1 it was 16 µM (inactive); with M14 it was 3.12 µM (inactive). The GI50 in the experiment on MOLT-4 was 1.51 µM (inactive); in the experiment with Malme-3M, 6.28 µM (inactive); in the experiment on NCI-H460, 6.59 µM (inactive); with OVCAR-3 it was 2.49 µM (inactive); with RPMI-8226, 43.5 µM (inactive); in the experiment on RXF 393, 6.55 µM (inactive). The GI50 is 3.45 µM (inactive) in the experiment with SF-295; 5.64 µM (inactive) in the experiment with SK-MEL-5; 7.35 µM (inactive) with SK-OV-3; 5.24 µM (inactive) with SNB-75; 16.2 µM (inactive) with TK-10; 6.04 µM (inactive) in the experiment with UACC-257.

As for `O=S(=O)(Cc1cnc(O)nc1O)Cc1cnc(O)nc1O`, the GI50 with 786-0, in the experiment on BT-549, in the experiment with CAKI-1, in the experiment with EKVX, with IGROV-1 and with M14 was > 100 µM (inactive) in each case. In addition, the GI50 in the experiment with MOLT-4, in the experiment with Malme-3M, in the experiment with NCI-H460, in the experiment on RPMI-8226, in the experiment with RXF 393 and in the experiment with SF-295 was > 100 µM (inactive) each time. The GI50 in the experiment on SK-MEL-2, with SK-MEL-5, with SNB-75, in the experiment on TK-10 and in the experiment with UACC-257 was > 100 µM (inactive) in each case.

With `COc1ccc(C(OCC2OC(n3ccc(NC(=O)c4ccccc4)nc3=O)CC2OP2(=S)SCCS2)(c2ccccc2)c2ccc(OC)cc2)cc1` (stereo unspecified), the GI50 in the experiment with 786-0 was 24.4 µM (inactive); in the experiment on BT-549 it was 25.9 µM (inactive); in the experiment on EKVX it was 34.5 µM (inactive); in the experiment on IGROV-1, 33.5 µM (inactive); with M14, 24.9 µM (inactive); with MOLT-4, 37.5 µM (inactive). Also, the GI50 with Malme-3M is 25.4 µM (inactive); in the experiment with NCI-H460 it was 33.6 µM (inactive); with OVCAR-3, 22.6 µM (inactive); with RPMI-8226 it was > 100 µM (inactive); with RXF 393, 33.2 µM (inactive); with SF-295, 30.7 µM (inactive). Besides, the GI50 in the experiment with SK-MEL-2 was 43.6 µM (inactive); in the experiment on SK-MEL-5, 22.4 µM (inactive); in the experiment on SK-OV-3 it was 25.2 µM (inactive); in the experiment on SNB-75, 24.5 µM (inactive); in the experiment with TK-10, > 100 µM (inactive); with UACC-257, 30.1 µM (inactive).

`O=C1C(Cl)C(c2cccc(Br)c2)N1c1c(O)c(Cl)cc(Br)c1Cl` (stereo unspecified): the GI50 with 786-0 was 23.4 µM (inactive); in the experiment on BT-549, 25.8 µM (inactive); in the experiment on CAKI-1 it was 19.3 µM (inactive); in the experiment with EKVX it was 17 µM (inactive); in the experiment with IGROV-1, 1.25 µM (inactive); in the experiment with M14, 13.9 µM (inactive). The GI50 with MOLT-4 is 13 µM (inactive); with Malme-3M, 19.1 µM (inactive); in the experiment on NCI-H460 it was 14.1 µM (inactive); in the experiment on OVCAR-3, 16.1 µM (inactive); in the experiment with RPMI-8226, 14.4 µM (inactive); with RXF 393, 10.9 µM (inactive). Further, the GI50 with SF-295 was 17.4 µM (inactive); with SK-MEL-2 it was 7.08 µM (inactive); in the experiment on SK-MEL-5, 14.2 µM (inactive); with SK-OV-3, 18.3 µM (inactive); in the experiment with TK-10 it was 19 µM (inactive); with UACC-257, 10.8 µM (inactive).

Source of the values: ChEMBL document CHEMBL1201862, “PubChem BioAssay data set” (2004).
